“Also recorded” adds a separate entry of the source.
Legend:
[1] = test system: ovalbumin-sensitized Sprague-Dawley rats, submandibular glands removed; assay: anaphylactic hypotension and heart function (VPSP, dP/dt), Example 10; type: in vivo, rat; conditions: for integrated (average) decrease in VPSP over the 30 min: 10 min prior to antigen, saline control 46.2±6.5
Description: Methods: Sprague-Dawley rats (200–300 g) were sensitized with 1 mg ovalbumin and 50 ng Pertussin toxin (Sigma) (24) one month prior to experimentation. The submandibular glands were removed bilaterally 7 days prior to the experiment by previously described procedures (23). Rats were anesthetized with sodium pentobarbital (65 mg/kg) and a tracheal tube (PE240 polyethylene tubing) was inserted before performing further surgeries. The jugular vein was-cannulated for injection of ovalbumin antigen, which was given as a bolus (100 μg/kg) over 10 sec. The right carotid artery was cannulated and the cannula tip was slowly advanced into the left ventricle, as detected when diastolic pressure fell to near 0 mmHg. The ventricular cannula was connected to a TXD-310 transducer and heart function parameters were recorded using a Digi-Med Heart Performance Analyser (Micro-Med, Louisville, Ky.). The effects of anaphylaxis on heart function were analysed by comparing the changes in ventricular peak systolic pressure (VPSP), and in the rate of ventricular contraction during systole (dP/dt) and relaxation during distole (−dP/dt). Antigen was injected at 10 min. The anaphylactic response was followed for 30 min.
Very rapidly (within 1 min) after the intravenous injection of antigen into ovalbumin-sensitized rats, VPSP dropped and minimal ventricular pressures were measured at 5 min after initiation of the anaphylactic reaction.
To determine if anaphylaxis directly affected heart function, the percent changes in VPSP were plotted against percent changes in dP/dt and −dP/dt. […] By analysis of variance, the slopes of the regression lines of dP/dt and −dP/dt were not different from unity.

[2] = test system: LPS (Salmonella typhosa)-induced hypotension in unoperated rats; assay: endotoxin (LPS)-induced hypotension, unoperated rats; type: in vivo, rat
Description: (§1) The animal model of endotoxic shock used involves intravenous injection of endotoxin (3.5 mg/kg of lipopolysaccharide (LPS) from Salmonella typhosa) into pentobarbital-anaesthetized Sprague-Dawley rats, to produce a fall in mean arterial blood pressure within 3 to 5 minutes. The endotoxin was injected slowly over 1 min. via the jugular vein, and mean arterial blood pressure in mm mercury (MABP) was monitored continuously for 60 min, with the average blood pressure being calculated at 15, 30, 45 and 60 min. Studies were performed on unoperated rats and rats with their submandibular glands removed (sialadenectomized).
(§2) The results shown in Table 1 are the averages of three different experiments using the protocol defined above. The data shown represent the average decrease in MABP (dec MABP) and the % Decrease in MABP over the 60 minutes following LPS administration. SGP-S (100μg/kg) and SGP-T (100 μg/kg) were administered 90 min. before LPS. […] Neither SGP-T nor SGP-S, when given prior to the LPS challenge, had appreciable effects on MABP.
Overall, SGP-T reduced by 60% the decrease and the percent decrease in MABP induced by endotoxin, relative to pre-LPS values. SGP-S, on the other hand, had no effect on the shock induced by endotoxin in unoperated rats.
(§3) The dose-response relationship of the inhibitory effect of SGP-T and SGP-S on endotoxin-induced hypotension was also examined and the results are shown in FIG. 1.

[3] = test system: neutrophils from carrageenin-soaked sponges; assay: superoxide production by neutrophils from carrageenin-soaked sponges of treated rats; type: in vivo, rat; conditions: intravenous SGP-T 4 hr. before implantation of the sponge
Description: Under halothane anaesthesia the sponge was removed from its subcutaneous site and the fluid was squeezed from it into a test tube. Following centrifugation at 2,000 g for 10 min, the exudate was decanted and the remaining cells were suspended in 4 ml of 0.9% saline, and their number determined using a Coulter Counter. One ml of the remaining cell suspension was extracted for use in the superoxide assay.
Neutrophils (10^6) were suspended in PBS buffer of the following composition: NaCl 137 mM, KCl 2.7 mM, Na2HPO4, 8.1 mM, KH2PO4 1.47 mM, CaCl2 1.19 mM, MgCl2 0.54 mM, glucose 7.5 mM and cytochrome C 1.5 mM (Sigma Chemical Co. St. Louis, […].) incubated at 37 C. Each sample was read along with a reference sample containing 1440 units of superoxide dismutase (Sigma) in a spectrophotometer (Hitachi, U200 spectrophotometer). The rate of superoxide production in response to 10^−7M phorbol myristate acetate (PMA) or 10^−5 M N-formyl-methionyl-leucyl-phenylalanine (fMLP) was then inferred from the slope. […]
Intravenous injections of SGP-T inhibited neutrophil influx into a carrageenin-soaked sponge in a dose-dependent manner (FIG. 4). When the ability of neutrophils obtained from the carrageenin-soaked sponges to generate superoxide anion was evaluated, those obtained from saline-treated rats were totally refractory to f MLP and phorbol myristate acetate (PMA).

[4] = test system: jejunal segments from ovalbumin-sensitized rats; assay: antigen-induced jejunal segment contraction, URE/OA ratio, Example 7; parameters: species or system rat
Description: Animals and Tissue Preparation: Male Sprague-Dawley rats were sensitized to egg albumin (ovalbumin, OA) with 50 ng of Pertussis bordetella toxin as an adjuvant. Four to six weeks after sensitization, the rats were anaethetised with sodium pentobarbital and the jejunum was removed. Two cm sections of the jejunum were mounted in tissue baths under 0.75 g of isometric tension, and the tissues were allowed to equilibrate for 20 min prior to beginning the experiment.
10 μg of SGP-T or one of its analogues or fragments was added to a bath, while control tissues received the saline vehicle. Following a 10 min incubation, 100 ng of OA prepared in 0.9% saline was added. After the tissue had reached a maximal contractile response, the tissues were washed extensively to remove OA and peptide and, after the tissues had established baseline tension, 20 μg of urecholine (URE; a cholinergic-muscarinic receptor agonist) was added to determine the maximal contractile response of the tissue. The tissues were then removed from the bath, cleared of all underlying mucosa and the weight of the remaining muscle was determined.
Data Analysis: The tension (measured in grams) per gram tissue weight generated by each tissue in response to OA and URE was calculated. To normalize for differences in the ability of each tissue segment to contract in response to the muscle stimulants, the contractile response to […]. Thus, a measure of the antigen-induced contraction was expressed as the URE/OA ratio.
The data was analyzed using the one-way analysis of variance (ANOVA) and differences between groups was determined using the Student t-test for unpaired samples. The results are shown in FIGS. 7 and 8 and Tables 3 and 4.

[5] = test system: LPS (Salmonella typhosa)-induced hypotension in sialadenectomized rats; assay: endotoxin (LPS)-induced hypotension, sialadenectomized rats; type: in vivo, rat
Description: as §1, §2, §3

[6] = peptide 100 μg/kg 90 min before LPS 3.5 mg/kg iv

For “NH2-Thr-Asp-Ile-Phe-Glu-Gly-Gly-COOH (H-TDIFEGG-OH) [SGP-T, submandibular gland peptide T, TDIFEGG]”, the “integrated (average) decrease in VPSP over the 30 min” value ([1]; 10 μg/kg) was 16.7±8.3 mm Hg, the “integrated (average) decrease in VPSP over the 30 min” value ([1]; 100 μg/kg) was 15.9±8.0 mm Hg and the “VPSP by the end of the experiment” value ([1]; 10 and 100 μg/kg, 30 min after antigen) was “attained pre-antigen values”. The “initial anaphylactic reaction (initial blood pressure drop)” value ([1]; FIG. 12) was “does not prevent”, the sustained anaphylactic reaction ([1]; FIG. 12) was “does prevent” and the “drop in blood pressure elicited by the anaphylactic reaction” value ([1]; doses of 35 and 100 μg/kg) was “significantly reduced”. The “anaphylactic hypotension / decrease in VPSP provoked by antigen” value ([1]; injected 10 min prior to antigen (100 μg/kg)) was “protected the rats against anaphylactic hypotension; also recorded: reduced significantly”, the “protection against antigen elicited hypotension” value ([1]; lower (10 μg/kg) and higher (350 μg/kg) doses) was “Neither lower (10 μg/kg) nor higher doses (350 μg/kg) of SGP-T protected” and the “effect on drop in MABP / shock induced by endotoxin” value [2] was “reduced the drop in MABP”. For the same substance, the “optimal dose for reducing LPS-induced hypotension” value [2] was “higher than in operated animals”, the “% Dec = percent decrease in MABP relative to MABPbef” value [2, 6] was −11.6% and the “MABPaft = average MABP for 60 mins after LPS injection” value [2, 6] was 99.6 ± 3.8 mm Hg. The “dec MABP = decrease in MABP after LPS relative to MABPbef” value [2, 6] was −13.6 ± 2.9 mm Hg, the “reduction of the decrease and the percent decrease in MABP induced by endotoxin” value ([2]; relative to pre-LPS values) was 60% and the “superoxide generation in response to fMLP and PMA by sponge neutrophils” value [3] was “able to generate substantial amounts of superoxide”. For the same substance, the “reduction of the anaphylactic reaction” value ([4]; 10 μg of peptide) was “more than 50%”, the URE/OA ([4]; Table 4, 10 μg peptide, 100 ng OA, 20 μg urecholine, saline 5.7 ± 1.0) was 13.9 ± 5.6 and the prevention of shock ([5]; doses higher than 10 μg/kg) was “less effective”. The “LPS-provoked drop in blood pressure” value ([5]; doses of 1, 3.5 and 10 μg/kg) was “significantly prevented”, the “decrease in blood pressure induced by LPS, dose-response” value ([5]; intravenously 1.5 hours before LPS) was “dose-dependently inhibited” and the “% Dec = percent decrease in MABP relative to MABPbef” value [5, 6] was −36.3 ± 3.3%. The “MABPaft = average MABP for 60 mins after LPS injection” value [5, 6] was 77.2 ± 3.9 mm Hg and the “dec MABP = decrease in MABP after LPS relative to MABPbef” value [5, 6] was −46.1 ± 4.9 mm Hg.
